For one series, the target named is T1, Pancreatic Lipase (Sus scrofa, UniProt P00591).
T1 construct: purchased Sigma L-3126
T1 sequence (P00591 1-450): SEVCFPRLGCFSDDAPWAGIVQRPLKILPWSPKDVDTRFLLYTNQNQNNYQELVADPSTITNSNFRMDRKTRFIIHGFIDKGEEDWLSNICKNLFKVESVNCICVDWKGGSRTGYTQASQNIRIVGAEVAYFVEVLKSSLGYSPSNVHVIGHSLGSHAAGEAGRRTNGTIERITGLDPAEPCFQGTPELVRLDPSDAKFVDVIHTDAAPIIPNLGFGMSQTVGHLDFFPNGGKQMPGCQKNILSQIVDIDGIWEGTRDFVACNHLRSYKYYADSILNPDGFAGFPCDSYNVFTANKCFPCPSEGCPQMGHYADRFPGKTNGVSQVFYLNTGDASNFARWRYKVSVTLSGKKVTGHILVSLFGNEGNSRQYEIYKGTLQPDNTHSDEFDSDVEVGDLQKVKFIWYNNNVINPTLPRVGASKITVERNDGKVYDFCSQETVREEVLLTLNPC
As to the kind of experiment: Pancreatic lipase inhibition assay (p-nitro phenol palmitate substrate, 96-well). The settings on record: for IC50: dose range 6.25 μM-200 μM, interpolated by linear regression; for inhibition at 100 µM / inhibition at 200 µM: pancreatic lipase, 37° C., OD 405 nm; for inhibition at 100 µM: compound 100 μM; for inhibition at 200 µM: compound 200 μM. Type of series: biochemical. On the procedure:
Preparation of test samples: Structures #2-#19 were dissolved in 1 mL DMSO to obtain a 10 mM stock solution, and were vortexed to dissolution and stored at 4° C. The various concentration of working samples were prepared in 0.2 M phosphate buffer, pH-8.0. This sample was used as test sample for all further assays.
Lipase assay: Lipase assay was performed by method described by Winkler and Stuckmann, 1979, with modification. (Winkler, U. K. & Stuckmann, M. Glycogen, hyaluronate, and some other polysaccharides greatly enhance the formation of exolipase by Serratia marcescens. J. Bacteriol. 138: 663-670 (1979)) Assay was designed, using a 96-well format. The substrate used in this assay was p-nitro phenol palmitate (Sigma, Cat No-N-2752). 4.5 mg of p-nitro phenol palmitate was dissolved in 200 μl of N,N-dimethyl formamide (Sigma, Cat No, D-4551) and volume made up to 10 ml with 0.1 M pH 8.0 phosphate buffer. Pancreatic Lipase (Sigma, Cat No. L-3126) sample was prepared by dissolving the enzyme in 0.1M phosphate buffer at a concentration of 5 mg/ml. The reaction mixture consisted of 150 μl substrate solution; 40 μl phosphate buffer (pH 8.0, 0.2 M) and 10 μl lipase solution. The reaction mixture was incubated at 37° C. and optical density was measured at 405 nm after incubation. Enzyme activity was presented in the form of international unit (IU).
Lipase activity: One enzyme unit of lipase is defined as that quantity releasing 1 nm of free phenol from the substrate (p-nitro phenol palmitate) per min per ml under the standard assay condition (Winkler and Stuckmann, 1979; Yadav R P, Saxena R K, Gupta R. Davidson W S., Purification and characterization of a region-specific lipase from Aspergillus terreus. Biotechnol. Appl. Biochem. (1998) 28, (243-249)). It is derived from standard graph of p-nitro phenol (Sigma, 104-8).
Lipase inhibition assay: Enzyme inhibition assay was performed in a dose dependent manner. The concentration of the synthetic analogs checked were 100 μM & 200 μM. The assay was similar to assay described above except 40 μl of test sample was used instead of phosphate buffer in control. Optical density was measured at 0 hr and following incubation at 37° C.
Enzyme Inhibition: Enzyme inhibition was presented in the term of relative activity and percentage inhibition simply on the basis of change in international unit (IU).
Preparation of test samples: Synthetic analogues were dissolved in 1 ml DMSO to obtain a 10 mM stock solution. The samples were vortexed to dissolution and stored at 4° C. The various concentration of working samples were prepared in O.2 M phosphate buffer, pH-8.0. This sample was used as test sample for all further assays.
Lipase inhibition assay: Enzyme inhibition assay was performed in a dose dependent manner. The concentration of the synthetic analogs checked were 6.25 μM-200 μM. The assay was similar to assay described above except 40 μl of test sample was used instead of phosphate buffer in control. Optical density was measured at 0 hr and following incubation at 37° C. The enzyme activity was measured in terms of international unit (IU).
Lipase activity: One enzyme unit of lipase is defined as that quantity releasing 1 nm of free phenol from the substrate (p-nitro phenol palmitate)/min per ml under standard assay conditions. It is derived from standard graph of p-nitro phenol (Sigma, 104-8)
Percent Inhibition: Enzyme inhibition was presented in the term of % inhibition simply on the basis of change in international unit (IU).
The value of IC50 was derived from linear regression. The value derived is based on interpolated data.

Structures are written as SMILES.

The compound `CCCCCCCCCCCC1=C(OC(=O)c2cccc(F)c2)C(=O)C=C(OC(=O)c2cccc(F)c2)C1=O` [Structure #2, 2,5-bis-(3-fluorophenylcarbonyloxy)-3-undecyl-1,4-benzoquinone] registered a melting point of 73.2 to 75.6 °C. At Pancreatic Lipase, the IC50 was below 6.25 µM, the inhibition at 100 µM stood at 99.2% and at 200 µM the inhibition was 97.9%.

Compound `CCCCCCCCCCCC1=C(OC(=O)c2ccccc2F)C(=O)C=C(OC(=O)c2ccccc2F)C1=O` [Structure #4, 2,5-bis-(2-fluorophenylcarbonyloxy)-3-undecyl-1,4-benzoquinone] yielded a melting point of 66.2 to 68 °C. On Pancreatic Lipase, the IC50 came out at 7.78 µM, testing at 100 µM gave an inhibition of 99.6% and the inhibition at 200 µM is 100%.

Consider `CCCCCCCCCCCC1=C(OC(=O)c2cccc([N+](=O)[O-])c2)C(=O)C=C(OC(=O)c2cccc([N+](=O)[O-])c2)C1=O` [Structure #11, 2,5-bis-(3-nitrophenylcarbonyloxy)-3-undecyl-1,4-benzoquinone], for which the melting point was in the range of 112.6 to 114.4 °C. At Pancreatic Lipase, it took 27 µM to reach half-maximal inhibition (IC50), 100 µM produced 97.4% inhibition and the inhibition at 200 µM worked out at 98%.

What is called IC50 is the concentration that gives 50% inhibition. Lower therefore signals greater potency. A word on the inhibition: it is the percentage by which the read-out fell short of the control. As a reminder, the melting point is the temperature of the solid-liquid transition.

The values above are taken from patent US7355055B2, “Compounds for treatment of lipase-mediated diseases” (Reliance Life Sciences Pvt. Ltd., priority 2005, dated 2008).
